Key:
JAK2 = JAK2 (Homo sapiens, UniProt O60674); experiment: JAK2 kinase ADP-Glo assay (Example 60)
JAK1 = JAK1 (Homo sapiens, UniProt P23458); experiment: JAK1 kinase ADP-Glo assay (Example 60)
JAK3 = JAK3 (Homo sapiens, UniProt P52333); experiment: JAK3 kinase ADP-Glo assay (Example 60)
TYK2 = target: T1, TYK2 (Homo sapiens, UniProt P29597); experiment: TYK2 kinase ADP-Glo assay (Example 60)
T1 sequence (P29597 871-1187 limits assumed): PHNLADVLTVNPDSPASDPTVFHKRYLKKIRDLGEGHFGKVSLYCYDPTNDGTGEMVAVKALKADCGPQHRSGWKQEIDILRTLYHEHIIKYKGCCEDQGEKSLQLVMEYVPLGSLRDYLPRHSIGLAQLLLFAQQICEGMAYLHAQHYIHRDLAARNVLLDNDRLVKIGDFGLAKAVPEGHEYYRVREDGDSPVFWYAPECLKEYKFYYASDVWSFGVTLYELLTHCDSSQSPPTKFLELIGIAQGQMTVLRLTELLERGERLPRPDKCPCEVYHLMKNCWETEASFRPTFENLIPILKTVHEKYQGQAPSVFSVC

Sequence of JAK3 (P52333 795-1124 limits assumed): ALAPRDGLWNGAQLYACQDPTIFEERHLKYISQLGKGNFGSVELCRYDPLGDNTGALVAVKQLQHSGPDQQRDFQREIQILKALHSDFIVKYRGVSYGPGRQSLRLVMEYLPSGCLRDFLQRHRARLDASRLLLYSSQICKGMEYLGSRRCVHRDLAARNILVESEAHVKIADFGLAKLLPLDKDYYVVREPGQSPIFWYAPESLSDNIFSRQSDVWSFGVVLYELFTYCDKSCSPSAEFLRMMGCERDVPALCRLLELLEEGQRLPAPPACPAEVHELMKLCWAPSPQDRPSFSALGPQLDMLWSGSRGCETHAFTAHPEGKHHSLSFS
Sequence of JAK1 (P23458 850-1154 limits assumed): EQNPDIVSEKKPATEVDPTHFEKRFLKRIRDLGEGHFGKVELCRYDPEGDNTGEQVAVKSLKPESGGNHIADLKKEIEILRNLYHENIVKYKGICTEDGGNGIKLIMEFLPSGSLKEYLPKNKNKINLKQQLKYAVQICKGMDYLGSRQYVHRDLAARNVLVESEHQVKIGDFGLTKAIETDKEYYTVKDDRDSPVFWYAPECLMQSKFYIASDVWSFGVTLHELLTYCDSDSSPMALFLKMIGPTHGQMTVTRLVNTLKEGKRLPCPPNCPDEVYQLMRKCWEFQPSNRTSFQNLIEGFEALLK
Sequence of JAK2 (O60674 826-1132 limits assumed): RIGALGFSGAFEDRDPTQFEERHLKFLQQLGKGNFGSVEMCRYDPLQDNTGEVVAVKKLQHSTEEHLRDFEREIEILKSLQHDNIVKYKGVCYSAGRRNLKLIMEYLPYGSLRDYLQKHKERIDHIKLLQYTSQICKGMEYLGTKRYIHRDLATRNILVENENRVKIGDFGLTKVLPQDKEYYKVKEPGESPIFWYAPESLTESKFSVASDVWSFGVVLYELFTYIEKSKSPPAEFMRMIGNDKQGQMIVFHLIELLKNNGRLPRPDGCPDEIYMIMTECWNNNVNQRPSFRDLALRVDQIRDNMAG

Row | SMILES | IC50 (JAK2) | IC50 (JAK1) | IC50 (JAK3) | IC50 (TYK2)
1 | CCc1cc(O)c(F)cc1-c1ccc2c(-c3nc4c([nH]3)CN(S(=O)(=O)C3CC3)C4)n[nH]c2c1 [MDI-218, 4-(3-(5-(cyclopropanesulfonyl)-1,4,5,6-tetrahydropyrrolo[3,4-d]imidazol-2-yl)-1H-indazol-6-yl)-5-ethyl-2-fluorophenol] | 0.614 nM | 0.825 nM | 0.948 nM | 1.75 nM
2 | CCc1cc(O)c(F)cc1-c1ccc2c(-c3nc4c([nH]3)CN(S(=O)(=O)C3CCC3)C4)n[nH]c2c1 [MDI-219, 4-(3-(5-(cyclobutylsulfonyl)-1,4,5,6-tetrahydropyrrolo[3,4-d]imidazol-2-yl)-1H-indazol-6-yl)-5-ethyl-2-fluorophenol] | 1.38 nM | 1.38 nM | 2.29 nM | 1.88 nM
3 | CCc1cc(O)c(F)cc1-c1ccc2c(-c3nc4c([nH]3)CN(CC3CCC3)C4)n[nH]c2c1 [MDI-210, 4-(3-(5-(cyclobutylmethyl)-1,4,5,6-tetrahydropyrrolo[3,4-d]imidazol-2-yl)-1H-indazol-6-yl)-5-ethyl-2-fluorophenol] | 1.11 nM | 0.347 nM | 0.979 nM | 31.5 nM
4 | CCc1cc(O)c(F)cc1-c1ccc2c(-c3nc4c([nH]3)CN(CC3CC3)C4)n[nH]c2c1 [MDI-208, 4-(3-(5-(cyclopropylmethyl)-1,4,5,6-tetrahydropyrrolo[3,4-d]imidazol-2-yl)-1H-indazol-6-yl)-5-ethyl-2-fluorophenol] | 0.44 nM | 0.153 nM | 1.11 nM | 9.31 nM
5 | CCc1cc(O)c(F)cc1-c1ccc2c(-c3nc4c([nH]3)CN(C(=O)c3ccnnc3)C4)n[nH]c2c1 [MDI-214, (2-(6-(2-ethyl-5-fluoro-4-hydroxyphenyl)-1H-indazol-3-yl)-pyrrolo[3,4-d]imidazol-5-(1H,4H,6H)-yl)(pyridazin-4-yl)ketone] | 0.273 nM | 0.303 nM | 0.352 nM | 2.8 nM
6 | CCc1cc(O)c(F)cc1-c1ccc2c(-c3nc4c([nH]3)CN(C(=O)[C@H]3CCCN3)C4)n[nH]c2c1 [MDI-263, (R)-6-(2-ethyl-5-fluoro-4-hydroxyphenyl)-3-(5-prolyl-1,4,5,6-tetrahydropyrrolo[3,4-d]imidazol-2-yl)-1H-indazol] | 0.717 nM | 0.12 nM | 0.458 nM | 0.717 nM
7 | CCc1cc(O)c(F)cc1-c1ccc2c(-c3nc4c([nH]3)CN(C3CCCC3)C4)n[nH]c2c1 [MDI-224, 4-(3-(5-cyclopentyl-1,4,5,6-tetrahydropyrrolo[3,4-d]imidazol-2-yl)-1H-indazol-6-yl)-5-ethyl-2-fluorophenol] | 0.754 nM | 0.248 nM | 2.01 nM | 16.1 nM
8 | CCc1cc(O)c(F)cc1-c1cc2[nH]nc(-c3nc4c([nH]3)CN(C(=O)C3CC3)C4)c2cn1 [MDI-242, cyclopropyl(2-(6-(2-ethyl-5-fluoro-4-hydroxyphenyl)-1H-pyrazolo[4,3-c]pyridine-3-yl)-4,6-dihydropyrrolo[3,4-d]imidazol-5(1H)-yl)ketone] | 28.6 nM | 67.2 nM | 152 nM | 583 nM
9 | CCc1cc(O)c(F)cc1-c1cc(C)c2c(-c3nc4c([nH]3)CN(C(=O)N3CC[C@H](O)C3)C4)n[nH]c2c1 [MDI-240, (S)-(2-(6-(2-ethyl-5-fluoro-4-hydroxyphenyl)-4-methyl-1H-indazol-3-yl)-4,6-dihydropyrrolo[3,4-d]imidazol-5(1H)-yl)(3-hydroxylpyrrolidin-1-yl)ketone] | 0.842 nM | 0.45 nM | 2.02 nM | 5.34 nM
10 | CCc1cc(O)c(F)cc1-c1ccc2c(-c3nc4c([nH]3)CN(C(=O)c3cccnn3)C4)n[nH]c2c1 [MDI-215, (2-(6-(2-ethyl-5-fluoro-4-hydroxyphenyl)-1H-indazol-3-yl)-pyrrolo[3,4-d]imidazol-5-(1H,4H,6H)-yl)(pyridazin-3-yl)ketone] | 0.277 nM | 0.197 nM | 0.308 nM | 1.58 nM

Now from value to compound:

Row | IC50 (JAK2) | IC50 (JAK1) | IC50 (JAK3) | IC50 (TYK2) | SMILES
11 | 1.88 nM | 0.557 nM | 1.3 nM | 2.35 nM | CCNC(=O)N1Cc2nc(-c3n[nH]c4cc(-c5cc(F)c(O)cc5CC)ccc34)[nH]c2C1 [MDI-247, 2-(6-(2-ethyl-5-fluoro-4-hydroxyphenyl)-1H-indazol-3-yl)-N-ethyl-4,6-dihydropyrrolo[3,4-d]imidazol-5-(1H)-carboxamide]
12 | 0.973 nM | 0.241 nM | 0.709 nM | 1.52 nM | CCc1cc(O)c(F)cc1-c1ccc2c(-c3nc4c([nH]3)CN(C(=O)NC)C4)n[nH]c2c1 [MDI-246, 2-(6-(2-ethyl-5-fluoro-4-hydroxyphenyl)-1H-indazol-3-yl)-N-methyl-4,6-dihydropyrrolo[3,4-d]imidazol-5-(1H)-carboxamide]
13 | 3.06 nM | 0.7 nM | 2.71 nM | 6.14 nM | CCc1cc(O)c(F)cc1-c1ccc2c(-c3nc4c([nH]3)CN(C(=O)CC#N)C4)n[nH]c2c1 [MDI-256, 3-(2-(6-(2-ethyl-5-fluoro-4-hydroxyphenyl)-1H-indazol-3-yl)-4,6-dihydropyrrolo[3,4-d]imidazol-5(1H)-yl)-3-oxypropionitrile]
14 | 0.355 nM | 0.398 nM | 0.565 nM | 4.76 nM | CCc1cc(O)c(F)cc1-c1ccc2c(-c3nc4c([nH]3)CN(C(=O)C(C)C)C4)n[nH]c2c1 [MDI-228, 1-(2-(6-(2-ethyl-5-fluoro-4-hydroxyphenyl)-1H-indazol-3-yl)-4,6-dihydropyrrolo[3,4-d]imidazol-5-(1H)-yl)-2-methylpropan-1-one]
15 | 0.974 nM | 0.395 nM | 0.497 nM | 0.993 nM | CCc1cc(O)c(F)cc1-c1ccc2c(-c3nc4c([nH]3)CN(C(=O)N3CCC(C#N)C3)C4)n[nH]c2c1 (stereo not drawn) [MDI-250, 1-(2-(6-(2-ethyl-5-fluoro-4-hydroxyphenyl)-1H-indazol-3-yl)-1,4,5,6-tetrahydropyrrolo[3,4-d]imidazol-5-carbonyl)pyrrolidin-3-nitrile]
16 | 2.99 nM | 2.28 nM | 2.47 nM | 8.98 nM | CCc1cc(O)c(F)cc1-c1ccc2c(-c3nc4c([nH]3)CN(C(=O)NC3CCC3)C4)n[nH]c2c1 [MDI-260, N-cyclobutyl-2-(6-(2-ethyl-5-fluoro-4-hydroxyphenyl)-1H-indazol-3-yl)-4,6-dihydropyrrolo[3,4-d]imidazol-5(1H)-carboxamide]
17 | 0.56 nM | 0.093 nM | 0.303 nM | 0.578 nM | CCc1cc(O)c(F)cc1-c1ccc2c(-c3nc4c([nH]3)CN(C(=O)NCCO)C4)n[nH]c2c1 [MDI-248, 2-(6-(2-ethyl-5-fluoro-4-hydroxyphenyl)-1H-indazol-3-yl)-N-(2-hydroxylethyl)-4,6-dihydropyrrolo[3,4-d]imidazol-5(1H)-carboxamide]
18 | 0.697 nM | 0.307 nM | 0.398 nM | 1.93 nM | CCc1cc(O)c(F)cc1-c1ccc2c(-c3nc4c([nH]3)CN(C(=O)N3CC(C#N)C3)C4)n[nH]c2c1 [MDI-249, 1-(2-(6-(2-ethyl-5-fluoro-4-hydroxyphenyl)-1H-indazol-3-yl)-1,4,5,6-tetrahydropyrrolo[3,4-d]imidazol-5-carbonyl)Azetidin-3-nitrile]
